Measurements: patent US20250163043A1 (TRANSTHERA SCIENCES (NANJING), INC., priority 2021, published 2025)

Assays:
Format in all cases: biochemical
CDK3/CycE1 = CDK3/CycE1 (Homo sapiens, UniProt Q00526); assay: ADP-Glo kinase assay on CDK enzymatic activity, CDK3/CycE1; settings: 10 concentrations from 10 μM, 4-fold, 60 min room temperature
Excerpt: (§1) Test samples: the compounds of the present invention, having structures shown above.
(§2) ADP-Glo Kinase Assay (ADP-Glo kinase kit), DMSO (dimethyl sulfoxide), CDK9/CycT1 (cyclin-dependent kinase 9/cyclin T1), CDK tide (cyclin-dependent kinase substrate peptide fragments), CDK1/CycE1 (cyclin-dependent kinase 1/cyclin E1), CDK2/CycA2 (cyclin-dependent kinase 2/cyclin A2), CDK3/CycE1 (cyclin-dependent kinase 3/cyclin E1), CDK4/CycD3 (cyclin-dependent kinase 4/cyclin D3), CDK5/p25NCK (cyclin-dependent kinase 5/p25), and AZD 4573.
(§3) A 384-well white plate, a 96-well plate, a microplate oscillator, a centrifuge, and a microplate reader.
(§4) The compounds were dissolved in DMSO and diluted 4-fold in the 96-well plate to obtain stock solutions with 10 concentration gradients, and added into a 384-well plate system to obtain a series of 10 concentration gradients of compound solutions with final concentrations of 10 μM starting and 4-fold gradient decreasing. 1 μM AZD4573 was used as compound positive control (PC) and 0.5% DMSO as solvent vehicle control (VC), ten duplicated wells each for PC and VC.
(§5) 1 μL of compound solution and 2 μL of 2× kinase solution were transferred to each well, and the plate was centrifuged at 1000 g for 30 s and left at room temperature for 10 min. A mixture of 2× substrate and ATP was prepared in 1× kinase buffer. The reaction was started after adding 2 μL of substrate and ATP into the plate. The plate was centrifuged at 1000 g for 30 s. The assay plate was closed and left at room temperature for 60 min. The reaction system was added with 4 μL of ADP Glo reagent, centrifuged at 1000 rpm for 1 min, and incubated at room temperature for 40 min. The reaction system was added with 8 μL of kinase assay reagent, centrifuged at 1000 rpm for 1 min and incubated at room temperature for 40 min. The […] was read on Biotek.
(§6) The inhibition rate was calculated according to the following formula: […]
(§7) Lumcmpd: compound fluorescence reading; Lumpositive: average value of the fluorescence reading of positive compound control; Lumvehicle: average value of the fluorescence reading of solvent vehicle control.
(§8) IC50 values were fitted using GraphPad 7.0 based on inhibition rates of compounds at different concentrations.

CDK5/p25NCK = CDK5/p25NCK (Homo sapiens, UniProt Q00535); assay: ADP-Glo kinase assay on CDK enzymatic activity, CDK5/p25NCK; settings: 10 concentrations from 10 μM, 4-fold, 60 min room temperature
Excerpt: as §1, §2, §3, §4, §5, §6, §7, §8

CDK2/CycA2 = CDK2/CycA2 (Homo sapiens, UniProt P24941); assay: ADP-Glo kinase assay on CDK enzymatic activity, CDK2/CycA2; settings: 10 concentrations from 10 μM, 4-fold, 60 min room temperature
Excerpt: as §1, §2, §3, §4, §5, §6, §7, §8

CDK9/CycT1 = CDK9/CycT1 (Homo sapiens, UniProt P50750); assay: ADP-Glo kinase assay on CDK enzymatic activity, CDK9/CycT1; settings: 10 concentrations from 10 μM, 4-fold, 60 min room temperature
Excerpt: as §1, §2, §3, §4, §5, §6, §7, §8

CDK1/CycE1 = CDK1/CycE1 (Homo sapiens, UniProt P06493); assay: ADP-Glo kinase assay on CDK enzymatic activity, CDK1/CycE1; settings: ADP-Glo; 10 concentrations from 10 μM, 4-fold; 60 min room temperature; read-out: CDK1/CycE1/nM (IC50)
Description: as §1, §3, §4, §5, §6, §7, §8

Sequence of CDK9/CycT1 (P50750 whole entry): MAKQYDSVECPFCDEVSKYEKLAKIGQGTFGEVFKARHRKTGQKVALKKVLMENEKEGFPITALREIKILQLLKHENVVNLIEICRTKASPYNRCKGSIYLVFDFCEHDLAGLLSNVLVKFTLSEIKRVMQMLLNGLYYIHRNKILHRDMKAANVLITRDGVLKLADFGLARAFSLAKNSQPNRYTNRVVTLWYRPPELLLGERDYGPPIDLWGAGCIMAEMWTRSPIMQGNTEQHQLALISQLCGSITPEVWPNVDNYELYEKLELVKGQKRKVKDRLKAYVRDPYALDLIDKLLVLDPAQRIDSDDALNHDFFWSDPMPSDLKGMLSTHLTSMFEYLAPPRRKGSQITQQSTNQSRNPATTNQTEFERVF
Sequence of CDK9/CycT1 (O60563 whole entry partner): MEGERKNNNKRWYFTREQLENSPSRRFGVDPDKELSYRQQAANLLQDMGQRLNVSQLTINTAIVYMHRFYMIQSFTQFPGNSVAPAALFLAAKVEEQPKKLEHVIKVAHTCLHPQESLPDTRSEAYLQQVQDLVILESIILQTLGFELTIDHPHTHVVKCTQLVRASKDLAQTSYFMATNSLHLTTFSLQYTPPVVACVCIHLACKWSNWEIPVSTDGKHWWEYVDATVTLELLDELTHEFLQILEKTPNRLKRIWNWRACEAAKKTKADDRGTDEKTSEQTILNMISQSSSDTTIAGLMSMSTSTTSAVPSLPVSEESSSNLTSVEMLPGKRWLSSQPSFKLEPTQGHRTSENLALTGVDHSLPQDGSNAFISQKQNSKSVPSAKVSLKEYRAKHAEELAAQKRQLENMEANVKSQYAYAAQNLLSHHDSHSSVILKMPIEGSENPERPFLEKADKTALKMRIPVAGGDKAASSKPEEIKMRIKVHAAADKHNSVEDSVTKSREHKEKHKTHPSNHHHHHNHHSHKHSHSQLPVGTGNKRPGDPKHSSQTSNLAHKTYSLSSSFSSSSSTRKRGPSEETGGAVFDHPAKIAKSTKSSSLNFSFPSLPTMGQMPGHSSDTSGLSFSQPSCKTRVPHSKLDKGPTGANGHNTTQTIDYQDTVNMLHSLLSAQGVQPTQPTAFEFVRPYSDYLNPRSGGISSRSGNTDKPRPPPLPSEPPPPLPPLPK
Sequence of CDK3/CycE1 (Q00526 whole entry, species assumed): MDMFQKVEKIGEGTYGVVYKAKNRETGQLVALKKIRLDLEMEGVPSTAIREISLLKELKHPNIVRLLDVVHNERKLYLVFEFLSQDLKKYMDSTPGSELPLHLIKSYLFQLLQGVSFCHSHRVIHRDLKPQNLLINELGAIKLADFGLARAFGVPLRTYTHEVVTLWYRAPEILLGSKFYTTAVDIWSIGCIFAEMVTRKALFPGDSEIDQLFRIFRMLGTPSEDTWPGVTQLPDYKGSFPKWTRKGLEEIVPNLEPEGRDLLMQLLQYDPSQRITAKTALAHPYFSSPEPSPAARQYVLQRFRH
Sequence of CDK3/CycE1 (P24864 whole entry partner, species assumed): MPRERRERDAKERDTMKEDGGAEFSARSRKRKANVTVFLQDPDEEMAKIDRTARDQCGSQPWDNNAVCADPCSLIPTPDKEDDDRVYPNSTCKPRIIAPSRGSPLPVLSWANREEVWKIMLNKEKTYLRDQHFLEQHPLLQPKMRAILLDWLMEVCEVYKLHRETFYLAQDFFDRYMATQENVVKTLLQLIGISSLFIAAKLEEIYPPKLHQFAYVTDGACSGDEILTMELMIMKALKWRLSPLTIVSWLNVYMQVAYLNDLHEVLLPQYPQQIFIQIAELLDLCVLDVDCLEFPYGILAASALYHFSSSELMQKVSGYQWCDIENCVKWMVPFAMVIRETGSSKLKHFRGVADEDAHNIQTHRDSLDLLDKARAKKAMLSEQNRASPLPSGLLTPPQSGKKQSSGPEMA
Sequence of CDK5/p25NCK (Q00535 whole entry, species assumed): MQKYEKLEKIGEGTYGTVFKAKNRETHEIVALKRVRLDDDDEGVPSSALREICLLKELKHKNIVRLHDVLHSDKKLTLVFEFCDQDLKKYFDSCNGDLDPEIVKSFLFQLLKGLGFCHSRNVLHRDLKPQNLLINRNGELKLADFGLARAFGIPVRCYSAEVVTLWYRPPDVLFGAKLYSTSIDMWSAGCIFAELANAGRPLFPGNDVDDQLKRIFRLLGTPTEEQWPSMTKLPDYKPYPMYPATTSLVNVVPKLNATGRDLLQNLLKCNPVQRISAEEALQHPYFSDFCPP
Sequence of CDK5/p25NCK (Q15078 99-307 partner limits assumed, species assumed): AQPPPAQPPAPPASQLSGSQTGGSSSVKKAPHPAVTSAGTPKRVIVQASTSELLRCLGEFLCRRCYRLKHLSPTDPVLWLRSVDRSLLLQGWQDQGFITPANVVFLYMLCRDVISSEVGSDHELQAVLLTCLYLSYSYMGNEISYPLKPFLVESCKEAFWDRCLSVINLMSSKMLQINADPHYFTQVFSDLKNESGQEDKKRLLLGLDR
Sequence of CDK1/CycE1 (P06493 whole entry, species assumed): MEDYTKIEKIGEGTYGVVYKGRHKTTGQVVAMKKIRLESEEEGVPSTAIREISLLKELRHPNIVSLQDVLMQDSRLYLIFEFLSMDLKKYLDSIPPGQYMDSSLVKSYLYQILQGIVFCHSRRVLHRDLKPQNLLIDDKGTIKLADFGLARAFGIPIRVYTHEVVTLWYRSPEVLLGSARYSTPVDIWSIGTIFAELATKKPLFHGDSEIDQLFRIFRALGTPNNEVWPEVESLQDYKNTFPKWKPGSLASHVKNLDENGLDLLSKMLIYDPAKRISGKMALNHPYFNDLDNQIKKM
Sequence of CDK1/CycE1 (P24864 whole entry partner, species assumed): as the sequence (P24864 whole entry partner, species assumed) above

| Structure (SMILES) | IC50 (CDK3/CycE1) [nM] | IC50 (CDK5/p25NCK) [nM] | IC50 (CDK2/CycA2) [nM] | IC50 (CDK9/CycT1) [nM] | IC50 (CDK1/CycE1) [nM] |
| --- | --- | --- | --- | --- | --- |
| CC(=O)N[C@@H]1CCC[C@H](C(=O)Nc2cc3c(NC(C)C)nc(C#N)cc3cn2)C1 [Compound 2, (1S,3R)-3-acetamido-N-(7-cyano-5-(isopropylamino)-2,6-naphthyridin-3-yl)cyclohexane-1-carboxamide] | 179 | 783 | 669 | 8 |  |
| C#Cc1cc2cnc(NC(=O)[C@H]3CCC[C@@H](NC(C)=O)C3)cc2c(NC(C)C)n1 [Compound 13, (1S,3R)-3-acetamido-N-(7-ethynyl-5-(isopropylamino)-2,6-naphthyridin-3-yl)cyclohexane-1-carboxamide] | 41 | 527 | 402 | 13 |  |
| CC(=O)N[C@@H]1CCC[C@H](C(=O)Nc2cc3c(NC(C)C)nc(CCO)cc3cn2)C1 [Compound 14, (1S,3R)-3-acetamido-N-(7-(2-hydroxyethyl)-5-(isopropylamino)-2,6-naphthyridin-3-yl)cyclohexane-1-carboxamide] | 91 | 187 | 284 | 11 |  |
| CC(=O)N1CCC[C@H](C(=O)Nc2cc3c(NC(C)C)nc(C#N)cc3cn2)C1 [Compound 24, (S)-1-acetyl-N-(7-cyano-5-(isopropylamino)-2,6-naphthyridin-3-yl)piperidine-3-carboxamide] | 862 | 5340 | 3340 | 26 |  |
| CC(C)Nc1nc(C#N)cc2cnc(N[C@H]3CC[C@@H](N)C3)cc12 [Compound 29, 7-(((1S,3R)-3-aminocyclopentyl)amino)-1-(isopropylamino)-2,6-naphthyridine-3-carbonitrile] | 1210 | 461 | 514 | 4 |  |
| CC(C)(C)Nc1nc(C#N)cc2cnc(N[C@H]3CC[C@H](N)C3)cc12 [Compound 34, 7-(((1S,3S)-3-aminocyclopentyl)amino)-1-(tert-butylamino)-2,6-naphthyridine-3-carbonitrile] | 137 | 238 | 128 | 2 |  |
| CC(C)(C)Nc1nc(C(F)F)cc2cnc(N[C@H]3C[C@H](O)C3)nc12 [Compound C8, (1r,3r)-3-((8-(tert-butylamino)-6-(difluoromethyl)pyrido[3,4-d]pyrimidin-2-yl)amino)cyclobutan-1-ol] |  |  | 5 | 2 | 8 |
| CC(C)(C)Nc1nc(C#N)cc2cnc(N[C@H]3C[C@H](O)C3)nc12 [Compound C9, 8-(tert-butylamino)-2-(((1r,3r)-3-hydroxycyclobutyl)amino)pyrido[3,4-d]pyrimidine-6-carbonitrile] |  |  | 8 | 1 | 8 |
| CN[C@H]1C[C@H](Nc2ncc3cc(C#N)nc(NC(C)C)c3n2)C1 [Compound C20, 8-(isopropylamino)-2-(((1r,3r)-3-(methylamino)cyclobutyl)amino)pyrido[3,4-d]pyrimidine-6-carbonitrile] |  |  | 18 | 1 | 71 |
| CC(C)Nc1nc(C#N)cc2cnc(N[C@H]3C[C@H](N4CCN(C)CC4)C3)nc12 [Compound C22, 8-(isopropylamino)-2-(((1r,3r)-3-(4-methylpiperazin-1-yl)cyclobutyl)amino)pyrido[3,4-d]pyrimidine-6-carbonitrile] |  |  | 24 | 2 | 218 |
| CC(C)Nc1nc(C#N)cc2cnc(N[C@H]3C[C@@H](N4CCN(C)CC4)C3)nc12 [Compound C23, 8-(isopropylamino)-2-(((1s,3s)-3-(4-methylpiperazin-1-yl)cyclobutyl)amino)pyrido[3,4-d]pyrimidine-6-carbonitrile] |  |  | 59 | 6 | 288 |
| CC(C)Nc1nc(C#N)cc2cnc(N[C@H]3C[C@H](N(C)C)C3)nc12 [Compound C24, 2-(((1r,3r)-3-(dimethylamino)cyclobutyl)amino)-8-(isopropylamino)pyrido[3,4-d]pyrimidine-6-carbonitrile] |  |  | 115 | 2 | 142 |
| CC(C)Nc1nc(C#N)cc2cnc(N[C@H]3C[C@](C)(N)C3)nc12 [Compound C26, 2-(((1r,3r)-3-amino-3-methylcyclobutyl)amino)-8-(isopropylamino)pyrido[3,4-d]pyrimidine-6-carbonitrile] |  |  | 93 | 1 | 34 |
| CC(C)Nc1nc(C#N)cc2cnc(N[C@H]3C[C@H](CO)C3)nc12 [Compound C31, 2-(((1r,3r)-3-(hydroxymethyl)cyclobutyl)amino)-8-(isopropylamino)pyrido[3,4-d]pyrimidine-6-carbonitrile] |  |  | 5 | 2 | 21 |
| COC[C@@H](C)Nc1nc(C#N)cc2cnc(N[C@H]3C[C@H](N)C3)nc12 [Compound C41, 2-(((1r,3R)-3-aminocyclobutyl)amino)-8-(((R)-1-methoxypropan-2-yl)amino)pyrido[3,4-d]pyrimidine-6-carbonitrile] |  |  | 82 | 1 | 540 |

Second part, the molecule after the results:

| IC50 (CDK3/CycE1) [nM] | IC50 (CDK5/p25NCK) [nM] | IC50 (CDK2/CycA2) [nM] | IC50 (CDK9/CycT1) [nM] | IC50 (CDK1/CycE1) [nM] | Structure (SMILES) |
| --- | --- | --- | --- | --- | --- |
|  |  | 85 | 2 | 187 | N#Cc1cc2cnc(N[C@H]3C[C@H](N)C3)nc2c(N[C@@H]2CCOC2)n1 [Compound C13, 2-(((1r,3R)-3-aminocyclobutyl)amino)-8-(((R)-tetrahydrofuran-3-yl)amino)pyrido[3,4-d]pyrimidine-6-carbonitrile] |
|  |  | 32 | 2 | 127 | CCCNc1nc(C#N)cc2cnc(N[C@H]3C[C@H](N)C3)nc12 [Compound C14, 2-(((1r,3r)-3-aminocyclobutyl)amino)-8-(propylamino)pyrido[3,4-d]pyrimidine-6-carbonitrile] |
|  |  | 253 | 2 | 114 | N#Cc1cc2cnc(N[C@H]3C[C@H](N)C3)nc2c(N2CCCCC2)n1 [Compound C15, 2-(((1r,3r)-3-aminocyclobutyl)amino)-8-(piperidin-1-yl)pyrido[3,4-d]pyrimidine-6-carbonitrile] |
|  |  | 22 | 2 | 81 | CC(C)Nc1nc(C#N)cc2cnc(N[C@H]3C[C@H](CN)C3)nc12 [Compound C16, 2-(((1r,3r)-3-(aminomethyl)cyclobutyl)amino)-8-(isopropylamino)pyrido[3,4-d]pyrimidine-6-carbonitrile] |
|  |  | 8 | 2 | 23 | CC(C)(C)Nc1nc(C#N)cc2cnc(N[C@H]3C[C@H](N)C3)nc12 [Compound C18, 2-(((1r,3r)-3-aminocyclobutyl)amino)-8-(tert-butylamino)pyrido[3,4-d]pyrimidine-6-carbonitrile] |
|  |  | 34 | 1 | 86 | CC(C)CNc1nc(C#N)cc2cnc(N[C@H]3C[C@H](N)C3)nc12 [Compound C25, 2-(((1r,3r)-3-aminocyclobutyl)amino)-8-(isobutylamino)pyrido[3,4-d]pyrimidine-6-carbonitrile] |
|  |  | 34 | 1 | 186 | CCNc1nc(C#N)cc2cnc(N[C@H]3C[C@H](N)C3)nc12 [Compound C28, 2-(((1r,3r)-3-aminocyclobutyl)amino)-8-(ethylamino)pyrido[3,4-d]pyrimidine-6-carbonitrile] |
|  |  | 83 | 2 | 99 | N#Cc1cc2cnc(N[C@H]3C[C@H](N)C3)nc2c(NC2CCOCC2)n1 [Compound C30, 2-(((1r,3r)-3-aminocyclobutyl)amino)-8-((tetrahydro-2H-pyran-4-yl)amino)pyrido[3,4-d]pyrimidine-6-carbonitrile] |
|  |  | 19 | 1 | 112 | CC1(Nc2nc(C#N)cc3cnc(N[C@H]4C[C@H](N)C4)nc23)CC1 [Compound C35, 2-(((1r,3r)-3-aminocyclobutyl)amino)-8-((1-methylcyclopropyl)amino)pyrido[3,4-d]pyrimidine-6-carbonitrile] |
|  |  | 32 | 2 | 25 | N#Cc1cc2cnc(N[C@H]3C[C@H](N)C3)nc2c(NC23CC(C2)C3)n1 [Compound C36, 2-(((1r,3r)-3-aminocyclobutyl)amino)-8-(bicyclo[1.1.1]pentan-1-ylamino)pyrido[3,4-d]pyrimidine-6-carbonitrile] |
